Values after ≈ are worked out from the molar mass of the structure shown. Where two headings read alike, the source gives them in different places.
Assays:
[1] = test system: Candida albicans CCM 8320 (ATCC 24433); assay: Antifungal microdilution broth (EUCAST); conditions: Candida albicans, 24 h, read-out: MIC CA
[2] = test system: Staphylococcus aureus subsp. aureus (MRSA) CCM 4750 (ATCC 43300); assay: Antibacterial microdilution broth (EUCAST); type: cell-based; conditions: Staphylococcus aureus; 24h incubation; read-out: MIC MRSA
[3] = test system: Candida tropicalis CCM 8264 (ATCC 750); assay: Antifungal microdilution broth (EUCAST); conditions: Candida tropicalis, 24 h, read-out: MIC CT
[4] = test system: M. avium DSM 44156 (ATCC 25291); assay: Antimycobacterial MIC, microdilution broth / resazurin; type: cell-based, Mycobacterium avium; conditions: Mycobacterium avium; resazurin after 96 h; read-out: MIC M. avium
HepG2 cells = assay: HepG2 cytotoxicity screening (CellTiter 96); type: cell-based, human; conditions: for IC50: Homo sapiens, HepG2, 24 h, 24 h incubation, CellTiter 96, * above highest tested concentration, ** limited by insolubility in medium; for SI: SI = IC50 (µM) HepG2 / MICH37Ra (µM)
[5] = test system: Staphylococcus aureus subsp. aureus CCM 4223 (ATCC 29213); assay: Antibacterial microdilution broth (EUCAST); type: cell-based; conditions: Staphylococcus aureus; 24h incubation; read-out: MIC SA
[6] = test system: Pseudomonas aeruginosa CCM 3955 (ATCC 27853); assay: Antibacterial microdilution broth (EUCAST); type: cell-based; conditions: Pseudomonas aeruginosa; 72h incubation; read-out: MIC PA
[7] = test system: Candida krusei CCM 8271 (ATCC 6258); assay: Antifungal microdilution broth (EUCAST); conditions: Pichia kudriavzevii, 24 h, read-out: MIC CK
[8] = test system: Mycobacterium tuberculosis H37Ra ITM-M006710 (ATCC 9431); assay: Antimycobacterial MIC, microdilution broth / Alamar Blue (resazurin); type: cell-based; conditions: Mycobacterium tuberculosis
[9] = test system: Trichophyton interdigitale CCM 8377 (ATCC 9533); assay: Antifungal microdilution broth (EUCAST); conditions: Trichophyton interdigitale, 72 h, read-out: MIC TI
[10] = test system: Lichtheimia corymbifera CCM 8077; assay: Antifungal microdilution broth (EUCAST); conditions: Lichtheimia corymbifera, CCM8077, 24 h, read-out: MIC LC
[11] = test system: M. aurum DSM 43999 (ATCC 23366); assay: Antimycobacterial MIC, microdilution broth / resazurin; type: cell-based; conditions: Mycolicibacterium aurum; resazurin after 72 h; read-out: MIC M. aurum
[12] = test system: Acinetobacter baumannii DSM 30007 (ATCC 19606); assay: Antibacterial microdilution broth (EUCAST); type: cell-based; conditions: Acinetobacter baumannii; 24h incubation; read-out: MIC AB
[13] = test system: M. kansasii DSM 44162 (ATCC 12478); assay: Antimycobacterial MIC, microdilution broth / resazurin; type: cell-based; conditions: Mycobacterium kansasii; resazurin after 96 h; read-out: MIC M. kansasii
[14] = test system: Escherichia coli CCM 3954 (ATCC 25922); assay: Antibacterial microdilution broth (EUCAST); type: cell-based; conditions: Escherichia coli; 24h incubation; read-out: MIC EC
[15] = RP-UHPLC lipophilicity parameter log k’w; type: physicochemical; conditions: for log k’w: RP-UHPLC, acetonitrile/water, log k extrapolated to 0% acetonitrile; for logkw: experimental lipophilicity parameter
Description: Lipophilicity and water solubility of the drug candidates are important parameters as they are often directly related to their ADME properties in the organism. Lipophilicity is usually expressed as the logarithm of the partition coefficient in n-octanol/water (log P). Due to its laborious determination, especially in the HTS screening, other experimental methods such as RP-HPLC log k’w or purely computational approaches such as Clog P were proposed and have been established as reasonable estimators of true lipophilicity. To investigate the changes in lipophilicity upon introduction of oxazole in the title compounds, we determined the log k’w of all derivatives and compared respective values among the pairs.
The log k of the synthesized compounds was measured using the same instrument (single measurement per concentration), software, and column as was used in the purity evaluation. Working solutions were diluted as described above for purity determination. The log k parameter was calculated after the UHPLC measurements using isocratic mode with mobile phase acetonitrile (B)/water (A) in a set of concentrations of 40, 45, 50% and 20, 30, 40% B for subtype I and subtype II, respectively.

[16] = test system: Staphylococcus epidermidis CCM 4418 (ATCC 12228); assay: Antibacterial microdilution broth (EUCAST); type: cell-based; conditions: Staphylococcus epidermidis; 24h incubation; read-out: MIC SE
[17] = test system: Aspergillus flavus CCM 8363; assay: Antifungal microdilution broth (EUCAST); conditions: Aspergillus flavus, CCM8363, 24 h, read-out: MIC AFla
[18] = test system: Enterococcus faecalis CCM 4224 (ATCC 29212); assay: Antibacterial microdilution broth (EUCAST); type: cell-based; conditions: Enterococcus faecalis; 24h incubation; read-out: MIC EF
[19] = test system: M. smegmatis DSM 43465 (ATCC 607); assay: Antimycobacterial MIC, microdilution broth / resazurin; type: cell-based; conditions: Mycolicibacterium smegmatis; resazurin after 48 h; read-out: MIC M. smegmatis
[20] = test system: Candida parapsilosis CCM 8260 (ATCC 22019); assay: Antifungal microdilution broth (EUCAST); conditions: Lodderomyces parapsilosis, 24 h, read-out: MIC CP
[21] = test system: Aspergillus fumigatus ATCC 204305; assay: Antifungal microdilution broth (EUCAST); conditions: Aspergillus fumigatus, ATCC204305, 24 h, read-out: MIC AF
[22] = 120 h, Middlebrook 7H9, resazurin after 120 h, read-out: Mtb H37Ra MIC
[23] = recalculated from µg/mL, read-out: MICH37Ra

| Compound | MIC [1] [µM] | MIC [2] [µM] | MIC [3] [µM] | MIC [4] [µg/mL] | MIC [5] [µM] | MIC [6] [µM] | MIC [7] [µM] | MIC [8, 22] [µg/mL] | MIC [9] [µM] | MIC [10] [µM] | MIC [11] [µg/mL] | MIC [12] [µM] | MIC [13] [µg/mL] | MIC [14] [µM] | log k’w [15] | logkw [15] | MIC [16] [µM] | MIC [17] [µM] | melting point [°C] | MIC [18] [µM] | further results |
| --- | --- | --- | --- | --- | --- | --- | --- | --- | --- | --- | --- | --- | --- | --- | --- | --- | --- | --- | --- | --- | --- |
| O=C(Nc1nccs1)c1ccncc1 [Compound 3a] | > 500 | > 500 | > 500 | ≥ 500 | > 500 | > 500 | > 500 | 250 | > 500 | > 500 | ≥ 500 | > 500 | 250 (≈ 1220 µM) | > 500 | 1.306 | 1.306 | > 500 | > 500 | 194 to 195 | > 500 | IC50 (HepG2 cells): > 1000 µM; MIC [19]: ≥ 500 µg/mL; MIC [20]: > 500 µM; MIC [21]: > 500 µM |
| Cc1cncc(C(=O)Nc2ncco2)c1 [Compound 4b] | > 500 | 500 (≈ 102 µg/mL) | > 500 | 125 (≈ 615 µM) | 500 (≈ 102 µg/mL) | > 500 | > 500 | 7.81 | > 500 | > 500 | 31.2 (≈ 154 µM) | 500 (≈ 102 µg/mL) | 62.5 (≈ 308 µM) | > 500 | 0.888 | 0.8881 | 500 (≈ 102 µg/mL) | > 500 | 171 to 175 | > 500 | IC50 (HepG2 cells): > 1000 µM; SI (HepG2 cells): >26.0; MIC [8, 23]: 38.4 µM; MIC [19]: ≥ 500 µg/mL; MIC [20]: > 500 µM; MIC [21]: > 500 µM |
| Cc1cc(C(=O)Nc2ncco2)ccn1 [Compound 5b] | > 125 | > 500 | > 125 | 62.5 (≈ 308 µM) | > 500 | > 500 | > 125 | 3.91 | > 125 | > 125 | 15.6 (≈ 76.9 µM) | > 500 | 31.2 (≈ 154 µM) | > 500 | 0.714 | 0.714 | > 500 | > 125 | 149 to 152 | > 500 | IC50 (HepG2 cells): > 1000 µM; SI (HepG2 cells): >52.0; MIC [8, 23]: 19.2 µM; MIC [19]: 250 µg/mL (≈ 1230 µM); MIC [20]: > 125 µM; MIC [21]: > 125 µM |
| O=C(Nc1nccs1)c1cnc(Cl)cn1 [Compound 9a] | > 500 | > 500 | > 500 | 15.6 (≈ 64.9 µM) | > 500 | > 500 | > 500 | 31.2 | > 500 | > 500 | ≥ 500 | > 500 | < 3.91 | > 500 | 1.941 | 1.941 | > 500 | 500 (≈ 120 µg/mL) | 197 to 200 | > 500 | MIC [19]: ≥ 500 µg/mL; MIC [20]: > 500 µM; MIC [21]: 500 µM (≈ 120 µg/mL) |

Reference: article PMC9143880, “Improving Antimicrobial Activity and Physico-Chemical Properties by Isosteric Replacement of 2-Aminothiazole with 2-Aminooxazole” (Pharmaceuticals, 2022)
